Calls of active or inactive are those of the source. No rule for the calls is given here.
Test system: CCRIS mutagenicity, Ames/micronucleus/aberration tests
Test: CCRIS mutagenicity studies
[1] = Test System: AMES SALMONELLA TYPHIMURIUM, Strain/Indicator: TA102, Metabolic Activation: NONE, Method: PREINCUBATION
[2] = Test System: AMES SALMONELLA TYPHIMURIUM, Strain/Indicator: TA102, Metabolic Activation: RAT, LIVER, S-9, AROCLOR 1254, Method: PREINCUBATION
[3] = Test System: AMES SALMONELLA TYPHIMURIUM, Strain/Indicator: TA98, Metabolic Activation: NONE, Method: PREINCUBATION
[4] = Test System: AMES SALMONELLA TYPHIMURIUM, Strain/Indicator: TA98, Metabolic Activation: RAT, LIVER, S-9, AROCLOR 1254, Method: PREINCUBATION
[5] = Test System: AMES SALMONELLA TYPHIMURIUM, Strain/Indicator: TA100, Metabolic Activation: NONE, Method: PREINCUBATION
[6] = Test System: AMES SALMONELLA TYPHIMURIUM, Strain/Indicator: TA100, Metabolic Activation: RAT, LIVER, S-9, AROCLOR 1254, Method: PREINCUBATION
[7] = Test System: AMES SALMONELLA TYPHIMURIUM, Strain/Indicator: TA1535, Metabolic Activation: NONE, Method: PREINCUBATION
[8] = Test System: AMES SALMONELLA TYPHIMURIUM, Strain/Indicator: TA1537, Metabolic Activation: NONE, Method: PREINCUBATION
[9] = Test System: AMES SALMONELLA TYPHIMURIUM, Strain/Indicator: TA1537, Metabolic Activation: NONE, Method: STANDARD PLATE
[10] = Test System: AMES SALMONELLA TYPHIMURIUM, Strain/Indicator: TA98, Metabolic Activation: NONE, Method: STANDARD PLATE
[11] = Test System: AMES SALMONELLA TYPHIMURIUM, Strain/Indicator: TA98, Metabolic Activation: RAT, LIVER, S-9, AROCLOR 1254, Method: STANDARD PLATE
[12] = Test System: AMES SALMONELLA TYPHIMURIUM, Strain/Indicator: TA100, Metabolic Activation: NONE, Method: STANDARD PLATE
[13] = Test System: AMES SALMONELLA TYPHIMURIUM, Strain/Indicator: TA100, Metabolic Activation: RAT, LIVER, S-9, AROCLOR 1254, Method: STANDARD PLATE

Nc1nc2ncc(CNc3ccc(C(=O)N[C@@H](CCC(=O)O)C(=O)O)cc3)nc2c(=O)[nH]1
mutagenic call (Test System: AMES SALMONELLA TYPHIMURIUM, Strain/Indicator: TA97A, Metabolic Activation: NONE, Method: PREINCUBATION): inactive; negative | mutagenic call (Test System: AMES SALMONELLA TYPHIMURIUM, Strain/Indicator: TA97A, Metabolic Activation: RAT, LIVER, S-9, AROCLOR 1254, Method: PREINCUBATION): inactive; negative | mutagenic call [1]: inactive; negative | mutagenic call [2]: inactive; negative

Clc1ccc(Cl)c(Cl)c1Cl
mutagenic call (End Point: IN VITRO CHROMOSOMAL ABERRATIONS, Test System: CHO-LB CELLS, Metabolic Activation: NONE): inactive; negative | mutagenic call (End Point: IN VITRO CHROMOSOMAL ABERRATIONS, Test System: CHO-LB CELLS, Metabolic Activation: RAT, LIVER, S-9, AROCLOR 1254): inactive; negative | mutagenic call (Test System: AMES SALMONELLA TYPHIMURIUM, Strain/Indicator: TA98, Metabolic Activation: HAMSTER, LIVER, S-9, AROCLOR 1254, Method: PREINCUBATION): inactive; negative | mutagenic call [3]: inactive; negative | mutagenic call [4]: inactive; negative | mutagenic call (Test System: AMES SALMONELLA TYPHIMURIUM, Strain/Indicator: TA100, Metabolic Activation: HAMSTER, LIVER, S-9, AROCLOR 1254, Method: PREINCUBATION): inactive; negative | mutagenic call [5]: inactive; negative | mutagenic call [6]: inactive; negative | mutagenic call (Test System: AMES SALMONELLA TYPHIMURIUM, Strain/Indicator: TA1535, Metabolic Activation: HAMSTER, LIVER, S-9, AROCLOR 1254, Method: PREINCUBATION): inactive; negative | mutagenic call [7]: inactive; negative | mutagenic call (Test System: AMES SALMONELLA TYPHIMURIUM, Strain/Indicator: TA1535, Metabolic Activation: RAT, LIVER, S-9, AROCLOR 1254, Method: PREINCUBATION): inactive; negative | mutagenic call (Test System: AMES SALMONELLA TYPHIMURIUM, Strain/Indicator: TA1537, Metabolic Activation: HAMSTER, LIVER, S-9, AROCLOR 1254, Method: PREINCUBATION): inactive; negative | mutagenic call [8]: inactive; negative | mutagenic call (Test System: AMES SALMONELLA TYPHIMURIUM, Strain/Indicator: TA1537, Metabolic Activation: RAT, LIVER, S-9, AROCLOR 1254, Method: PREINCUBATION): inactive; negative

CN(C)CCNC(=O)c1cccc2c1ncc1ccccc12
mutagenic call [9]: active; positive

O=[N+]([O-])C1=Cc2c3c1cccc3cc1ccc3ccccc3c21
mutagenic call [10]: active; positive | mutagenic call [11]: active; positive | mutagenic call [12]: inactive; negative | mutagenic call [13]: inactive; negative | mutagenic call (Test System: AMES SALMONELLA TYPHIMURIUM, Strain/Indicator: TA1535, Metabolic Activation: NONE, Method: STANDARD PLATE): inactive; negative | mutagenic call (Test System: AMES SALMONELLA TYPHIMURIUM, Strain/Indicator: TA1535, Metabolic Activation: RAT, LIVER, S-9, AROCLOR 1254, Method: STANDARD PLATE): inactive; negative | mutagenic call [9]: active; positive | mutagenic call (Test System: AMES SALMONELLA TYPHIMURIUM, Strain/Indicator: TA1537, Metabolic Activation: RAT, LIVER, S-9, AROCLOR 1254, Method: STANDARD PLATE): inactive; negative | mutagenic call (Test System: AMES SALMONELLA TYPHIMURIUM, Strain/Indicator: TA1538, Metabolic Activation: NONE, Method: STANDARD PLATE): active; positive | mutagenic call (Test System: AMES SALMONELLA TYPHIMURIUM, Strain/Indicator: TA1538, Metabolic Activation: RAT, LIVER, S-9, AROCLOR 1254, Method: STANDARD PLATE): active; positive

O=S(=O)(O)Oc1ccc2ccc3c4ccccc4cc4ccc1c2c43
mutagenic call [3]: inactive; negative | mutagenic call (Test System: AMES SALMONELLA TYPHIMURIUM, Strain/Indicator: TA98, Metabolic Activation: RAT, LUNG, S-9, Method: PREINCUBATION): inactive; negative

CC(Br)C(N)=O (configuration not stated)
mutagenic call (Test System: AMES SALMONELLA TYPHIMURIUM, Strain/Indicator: TA100, Metabolic Activation: MOUSE, LIVER, S-9, AROCLOR 1254, Method: STANDARD PLATE): active; positive | mutagenic call [12]: active; positive

CCCCCN
mutagenic call (Test System: AMES SALMONELLA TYPHIMURIUM, Strain/Indicator: TA98, Metabolic Activation: HAMSTER, LIVER, S-9, AROCLOR 1254 (10%), Method: PREINCUBATION): inactive; negative | mutagenic call [3]: inactive; negative | mutagenic call (Test System: AMES SALMONELLA TYPHIMURIUM, Strain/Indicator: TA98, Metabolic Activation: RAT, LIVER, S-9, AROCLOR 1254 (10%), Method: PREINCUBATION): inactive; negative | mutagenic call (Test System: AMES SALMONELLA TYPHIMURIUM, Strain/Indicator: TA100, Metabolic Activation: HAMSTER, LIVER, S-9, AROCLOR 1254 (10%), Method: PREINCUBATION): inactive; negative | mutagenic call [5]: inactive; negative | mutagenic call (Test System: AMES SALMONELLA TYPHIMURIUM, Strain/Indicator: TA100, Metabolic Activation: RAT, LIVER, S-9, AROCLOR 1254 (10%), Method: PREINCUBATION): inactive; negative | mutagenic call (Test System: AMES SALMONELLA TYPHIMURIUM, Strain/Indicator: TA1535, Metabolic Activation: HAMSTER, LIVER, S-9, AROCLOR 1254 (10%), Method: PREINCUBATION): inactive; negative | mutagenic call [7]: inactive; negative | mutagenic call (Test System: AMES SALMONELLA TYPHIMURIUM, Strain/Indicator: TA1535, Metabolic Activation: RAT, LIVER, S-9, AROCLOR 1254 (10%), Method: PREINCUBATION): inactive; negative | mutagenic call (Test System: AMES SALMONELLA TYPHIMURIUM, Strain/Indicator: TA1537, Metabolic Activation: HAMSTER, LIVER, S-9, AROCLOR 1254 (10%), Method: PREINCUBATION): inactive; negative | mutagenic call [8]: inactive; negative | mutagenic call (Test System: AMES SALMONELLA TYPHIMURIUM, Strain/Indicator: TA1537, Metabolic Activation: RAT, LIVER, S-9, AROCLOR 1254 (10%), Method: PREINCUBATION): inactive; negative

Cc1cnc2cc3nc(C)n(C)c3c(C)c2n1
mutagenic call (Test System: AMES SALMONELLA TYPHIMURIUM, Strain/Indicator: TA98, Metabolic Activation: S-9, Method: PREINCUBATION): inactive; negative

CN(N=O)C(=O)Oc1cccc2ccccc12
mutagenic call (End Point: IN VITRO CHROMOSOMAL ABERRATIONS, Test System: CHINESE HAMSTER V79-E CELLS, Metabolic Activation: NONE): active; positive | mutagenic call (Test System: E. COLI WP2, Strain/Indicator: WP2, Metabolic Activation: NONE, Method: STANDARD PLATE): active; positive

COc1cc(C(C)=O)ccc1O
mutagenic call (Test System: AMES SALMONELLA TYPHIMURIUM, Strain/Indicator: TA97, Metabolic Activation: NONE, Method: PREINCUBATION): inactive; negative | mutagenic call (Test System: AMES SALMONELLA TYPHIMURIUM, Strain/Indicator: TA97, Metabolic Activation: RAT, LIVER, S-9, AROCLOR 1254, Method: PREINCUBATION): inactive; negative | mutagenic call [3]: inactive; negative | mutagenic call [4]: inactive; negative | mutagenic call [5]: inactive; negative | mutagenic call [6]: inactive; negative | mutagenic call [1]: inactive; negative | mutagenic call [2]: inactive; negative

ClCc1cc2cccc3ccc4cc5ccccc5c1c4c32
mutagenic call [10]: active; positive | mutagenic call [12]: active; positive

COC1=CC(=O)C(=O)C(C(C)(C)C)=C1
mutagenic call [10]: inactive; negative | mutagenic call [11]: inactive; negative | mutagenic call [12]: inactive; negative | mutagenic call [13]: inactive; negative
